PubChem BioAssay (NCI)
Values joined by “and” are separate entries in the source; they are usually repeats but may differ in a detail not shown here. Identical values can stand only once.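 96-well plates; 48 h exposure; 5 concentrations. Endpoints by linear interpolation between flanking doses. Not reached: highest tested concentration assigned. GI50: concentration for 50% inhibition of growth. Definition used: TGI = concentration required for complete inhibition of growth.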

How the values were obtained:
Assay in all cases: DTP human tumour cell line panel, 48 h
[1] = test system: MDA-N
[2] = test system: RXF 393 renal
[3] = test system: OVCAR-3 ovarian
[4] = test system: 786-0 renal
[5] = test system: U251 CNS
[6] = test system: MOLT-4 leukemia

Row | Structure (SMILES) | TGI [1] [µM] | TGI [2] [µM] | TGI [3] [µM] | TGI [4] [µM] | TGI [5] | TGI [6] | GI50 [6]
1 | CC(=O)OC(C)(C)CCC(=O)[C@](C)(O)[C@H]1[C@H](O)C[C@@]2(C)[C@@H]3CCc4c(cc(OC5OC(CO)C(O)C(O)C5O)c(O)c4C)C3(C)C(=O)C[C@]12C (stereo partly drawn) | > 100 | > 100 | > 100 | > 100 | > 100 µM | > 100 µM | –
2 | Cc1[nH]c(=O)nc(NNCc2ccc(Cl)cc2)c1C(=O)Nc1ccc(Cl)cc1 | > 100 | > 100 | > 100 | > 100 | > 100 µM | > 100 µM | –
3 | CN1CC2CN(Cc3ccccc3)CCN2c2cccnc21 (stereo not drawn) | > 100 | > 100 | > 100 | > 100 | > 100 µM | > 100 µM | –
4 | CC(=O)N(C(C)=O)c1cc2c3c(c1)CCCN3CCC2 | > 10 | > 10 | > 10 | > 10 | > 10 µM | > 10 µM | –
5 | COc1ccc2nc3cccc([N+](=O)[O-])c3c(NCCCO)c2c1 | – | 0.00255 | – | 0.0517 | 0.108 µM and 0.16 µM | 0.036 µM and 0.0847 µM | 0.00328 µM and 0.0181 µM
6 | O=C(c1ccc(Cl)cc1)N(C(=S)OCCOc1ccccc1)c1ccccc1 | 33.3 | 39.3 | 30.9 | 40.1 | 29.7 µM | 59.8 µM | –
7 | ClCCCCCc1c2nc(c(CCCCCCl)c3ccc([nH]3)c(CCCCCCl)c3ccc([nH]3)c(CCCCCCl)c3nc1C=C3)C=C2 | > 100 | > 100 | > 100 | > 100 | > 100 µM | > 100 µM | –
8 | CNc1nc(C(N)=O)c(N)s1 | > 100 | > 100 | > 100 | > 100 | > 100 µM | > 100 µM | –
9 | CC1(C)N=C(C2CCCN2C(=O)OCc2ccccc2)OC1=O (stereo not drawn) | > 100 | 85.1 | > 100 | > 100 | > 100 µM | > 100 µM | –
10 | BrCC[N+]12CC[N+](CCBr)(CC1)C2 | > 100 | > 100 | > 100 | > 100 | > 100 µM | > 100 µM | –
11 | CCN1CN(c2ccccc2)C2(CCN(CC(CC3OCCO3)c3ccc(F)cc3)CC2)C1=O (stereo not drawn) | > 26.3 | 44.8 | 50.7 | 39 | 38.9 µM | > 67 µM | –
12 | CCO/C=N/C1=C(C#N)SC2=N/C(=C\c3ccccc3)C(=O)N21 | > 100 | > 100 | > 100 | > 100 | > 100 µM | > 100 µM | –
13 | C=C1C[C@H](O)[C@H](Br)C(C)(C)C12CCC(C)(Cl)C(Br)C2 (stereo partly drawn) | 10.8 | 10.6 | 15.7 | 15.4 | 8.91 µM | 75 µM | –
14 | O=C1CC(NCc2ccccc2)c2c(Cl)sc(Cl)c21 (stereo not drawn) | – | – | 47.3 | 57.8 | 43.4 µM | 43.2 µM | –
15 | COc1ccc(-c2oc3c(OC)c(OC)cc(O)c3c(=O)c2OC)cc1 | > 100 | > 100 | > 100 | > 100 | > 100 µM | > 100 µM | –
16 | Cc1nc2sccn2c1/C=C1/C(=O)Nc2cccc(Cl)c21 | 38.1 | > 100 | > 100 | > 100 | > 100 µM | > 100 µM | –

Row | Structure (SMILES) | TGI [1] [µM] | TGI [2] [µM] | TGI [3] [µM] | TGI [4] [µM] | TGI [5] | TGI [6] | GI50 [6]
17 | COc1ccc(-c2c(C#N)c(S)n(NS(=O)(=O)c3ccccc3)c(=O)c2C#N)cc1 | > 100 | > 100 | > 100 | > 100 | > 100 µM | > 100 µM | –
18 | CC(=O)Oc1ccc2c3c1O[C@H]1[C@H](O)CC[C@@]4(O)[C@@H](C2)N(C)CC[C@]314 | > 100 | – | > 100 | > 100 | > 100 µM | > 100 µM | –
19 | O=c1oc2c(Cl)cc(Cl)cc2cc1C1=CSC2=NCCN12 | > 100 | > 100 | 92.9 | > 100 | > 100 µM | > 100 µM | –
20 | CCOC(=O)NN(C(=O)OCC)c1c(C)cc(C)cc1C | > 100 | > 100 | > 100 | > 100 | > 100 µM | > 100 µM | –
21 | CCOC(=O)c1nnc2c(C#N)c(-c3ccccc3)c(C)n2c1N | > 100 | > 100 | > 100 | > 100 | > 100 µM | > 100 µM | –
22 | CC(=O)OC(Cc1c(O)c2c(C)cccc2oc1=O)C(C)(C)O (stereo not drawn) | > 100 | – | > 100 | > 100 | > 100 µM | > 100 µM | –
23 | CNC1(C(=O)O)CC1 | > 100 | > 100 | > 100 | > 100 | > 100 µM | > 100 µM | –
24 | c1ccc(CSC2(SCc3ccccc3)CCCCC2)cc1 | > 10 | > 10 | > 10 | > 10 | > 10 µM | > 10 µM | –
25 | Cc1ccc(N/C(SCc2ccccc2)=C(\C(Cl)=C(Cl)Cl)[N+](=O)[O-])c(C)c1 | 65.1 | – | 40.2 | 54.3 | 29.3 µM | > 100 µM | –
26 | Cc1ccc(Nc2nc3c(=O)n(C)c(=O)n(C)c3nc2Nc2ccc(C)cc2)cc1 | 24.2 | 23.2 | – | 18.7 | 29.9 µM | > 100 µM | –
27 | CCOC(=O)c1nc2ccc(C(F)(F)F)cc2nc1Oc1ccc(C(=O)OC)cc1 | – | > 100 | – | > 100 | > 100 µM | > 100 µM | –
28 | ON=C(CC(O)(C(F)(F)Cl)C(F)(F)Cl)CC(O)(C(F)(F)Cl)C(F)(F)Cl | – | 7.79 | > 10 | > 10 | > 10 µM | > 10 µM | –
29 | COc1ccc(/C=C2\C[C@H]3[C@@H]4CCC5=CC(=O)CC[C@]5(C)[C@H]4CC[C@]3(C)C2=O)cc1OC | > 100 | > 100 | > 100 | > 100 | – | 44.6 µM | –
30 | COc1cccc(/C=C2\S/C(=N/Nc3nc(-c4ccc([N+](=O)[O-])cc4)cs3)NC2=O)c1O | 57.5 | – | 30.1 | 38.9 | 7.66 µM | > 100 µM | –
31 | Cc1ccc(N(C)S(=O)(=O)c2ccccc2[N+](=O)[O-])cc1 | > 100 | > 100 | > 100 | > 100 | > 100 µM | – | –
